Tests used:
Assay type in all cases: in vivo, A/J mice
Kras Q61L = assay: Droplet digital PCR of Kras Q61L in lungs of mice after urethane exposure; details: 4 weeks post urethane exposure
Method: (§1) Urethane treatment. 6-8-week-old male and female A/J mice (JAX Stock #000646) were intraperitoneally injected daily for three days with either urethane (Sigma U2500) dissolved in PBS (1 g·kg^−1) or the vehicle PBS alone. Mice were humanely euthanized 1, 2, 3, or 4 weeks after the last injection and the lung, liver, and pancreas collected for the extraction of genomic DNA. All mouse care and experiments were performed in accordance with protocols approved by the IACUC of Duke University.
Droplet digital PCR (ddPCR). ddPCR was performed using the QX200 AutoDG Droplet Digital PCR System (Bio-Rad) following the manufacturer's protocol in a 22 μl ddPCR reaction containing 11 μl of 2×ddPCR SuperMix for probes (no dUTP) (Bio-Rad), 66 ng template DNA, 450 nM forward and reverse primers, and 250 nM FAM- and HEX-labelled probes. The primer and probe oligonucleotides were synthesized (IDT) based on sequences previously described^76 with minor modifications. The sequences for the primers are: Kras_Q61_For: 5′-[…]-3′ (SEQ ID NO: 205); and Kras_Q61_Rev: 5′-[…]-3′ (SEQ ID NO: 206). […] Plates were read on a QX200 droplet reader (Bio-Rad) and analyzed with QuantaSoft™ Analysis Pro software (version 1.0.596) (Bio-Rad) to assess the number of droplets positive for mutant DNA, wild-type DNA, both, or neither. […]

exon 1 of Kras = assay: MDS of Kras exon 1 from lungs of mice after urethane exposure
Method: as §1
(§2) Isolation of genomic DNA. MEF cells were resuspended in lysis buffer (100 mM NaCl, 10 mM Tris pH 7.6, 25 mM EDTA pH 8.0, and 0.5% SDS in H2O, supplemented with 20 μg·ml^−1 RNase A (Sigma)). Lung, pancreas, and liver (right lobe) from A/J mice (JAX Stock #000646) were cut into fine pieces and similarly resuspended in lysis buffer. Samples were incubated at 37° C. for 1 hour. 2 μl of 800 U·ml^−1 proteinase K (NEB) was then added to each sample, the samples were vortexed, and then incubated at 55° C. overnight. Genomic DNA was isolated by phenol/chloroform extraction followed by ethanol precipitation using standard procedures and quantified using Qubit fluorometer.
(§3) Maximum depth sequencing (MDS). The MDS assay^13 was adapted for mammalian Ras genes as follows. […] The concentration of purified product was measured with SimpliNano spectrophotometer (GE Healthcare Life Sciences). […]

exon 2 of Kras = assay: Maximum depth sequencing (MDS) of Kras exon 2 from tissues of mice after urethane exposure
Method: as §1, §2
Maximum depth sequencing (MDS). The MDS assay^13 was adapted for mammalian Ras genes as follows. 20-50 μg of genomic DNA was incubated with StuI (NEB) for analysis of the transcribed strand of Kras exon 1, EcoRV (NEB) and EcoRI (NEB) for analysis of the non-transcribed strand of Kras exon 1, XmnI (NEB) for analysis of the non-transcribed strand of Kras exon 2, and PleI (NEB) for analysis of the transcribed strand of Kras exon 2, or HphI (NEB) for the analysis of the non-transcribed strand of Hras exon 2. Reaction conditions were 5 units of the indicated restriction enzyme and per 1 μg DNA per 20 μl reaction (e.g., 20 μg genomic DNA, 5 μl enzyme (20 units/μl), and 40 μl 10×buffer in 400 μl reaction). Digested genomic DNA was column purified using QIAquick PCR Purification Kit following the manufacturer's protocol (Qiagen) and resuspended in ddH2O (35 μl H2O per 10 μg DNA). The barcode and adaptor were added to the target DNA by incubating purified DNA with the appropriate barcode primer (see below) for one cycle of PCR. PCR reactions were comprised of 10 μg DNA, 2.5 μl of 10 μM barcode primer, 4 μl of 2.5 mM dNTP, 10 μl of 5×buffer (NEB), and 0.5 μl Q5® Hot Start High-Fidelity DNA Polymerase (NEB) in a total volume of 50 μl. The number of PCR reactions was scaled according to the amount of DNA. PCR conditions were 98° C. for 1 minute, barcode primer annealing temperate (see below) for 15 seconds, and 72° C. for 1 minute. […] The concentration of purified product was measured with SimpliNano spectrophotometer (GE Healthcare Life Sciences). […]

exon 2 of Hras = assay: MDS of Hras exon 2 from lungs of mice after urethane exposure
Method: as §1, §2, §3

expansion of oncogenic mutations in Hras over time (exon 2 of Hras; 4 weeks vs 1 week): did not expand appreciably over time
Compound: CCOC(N)=O [urethane, ethyl carbamate]
Q61L mutation frequency by droplet digital PCR (Kras Q61L): frequency similar to that determined by MDS | oncogenic mutations in codon 12 or 13 of Kras (exon 1 of Kras; 1 week after urethane exposure): oncogenic mutations were rarely recovered in either codon 12 or 13 | oncogenic mutations in codon 12 or 13 of Kras (exon 1 of Kras; 4 weeks after urethane exposure): some G12 and G13 mutations were detected at a low frequency | strand bias of mutagenesis (exon 2 of Kras; lung, both strands sequenced in two exons of Kras): bias for the non-transcribed strand | most prominent substitution detected by MDS (exon 2 of Kras; lungs, Kras exon 2, all time points, urethane but not PBS): A>T transversion within the context of a 5′ C and 3′ any nucleotide | oncogenic mutation at codon Q61 of Kras detected by MDS (exon 2 of Kras; lungs, non-transcribed strand of exon 2, 1-4 weeks after three daily i.p. injections, vs PBS): oncogenic L (and to a lesser extent R) mutation at codon Q61 preferentially in the urethane, but not PBS cohort of mice, as early as 1 week after exposure | CAN→CTN transversions in liver and pancreas in comparison with the lung (exon 2 of Kras; non-transcribed strand of exon 2 of Kras, 1 and 4 weeks after urethane exposure): significantly fewer CAN→CTN transversions were recovered in the liver and pancreas | mutations in exon 2 of Hras (exon 2 of Hras; non-transcribed strand, 1 and 4 weeks after exposure): high prevalence of A>T followed by A>G mutations
